Experiment: xn = mol fraction of the nth substance listed

CNCCO + O
viscosity [mPa·s]
Settings	293.15 K	298.15 K	303.15 K	308.15 K	313.15 K	318.15 K	323.15 K
100 kPa, x2 = 0.51	26.3	–	–	–	9.61	–	6.36
101 kPa, x1 = 0.0844	–	–	2.541	2.165	1.868	1.625	–
101 kPa, x1 = 0.1894	–	–	6.505	5.276	4.347	3.612	–
101 kPa, x1 = 0.3001	–	–	11.33	8.968	7.206	5.87	–
101 kPa, x1 = 0.4014	–	–	14.46	11.33	9.042	7.311	–
101 kPa, x1 = 0.448	–	–	15.21	11.93	9.52	–	–
101 kPa, x1 = 0.5016	–	–	15.62	12.24	9.767	–	–
101 kPa, x1 = 0.5474	–	–	15.45	12.14	9.666	–	–
101 kPa, x1 = 0.6004	–	–	15.17	11.95	9.57	–	–
101 kPa, x1 = 0.7021	–	–	13.66	10.84	8.761	–	–
101 kPa, x1 = 0.7975	–	–	11.89	9.564	7.81	–	–
101 kPa, x1 = 0.9048	–	–	10.09	8.218	6.771	–	–
101.3 kPa, x1 = 0.0125	1.234	1.086	0.963	0.863	0.778	0.705	0.644
101.3 kPa, x1 = 0.138	6.87	5.53	4.42	3.65	3.07	2.61	2.25
101.3 kPa, x1 = 0.265	16.7	12.81	–	7.99	6.46	5.31	4.41
101.3 kPa, x2 = 0.3167	22.4	17.24	13.51	10.76	8.699	7.129	5.914
101.3 kPa, x2 = 0.5104	27.48	20.95	16.28	12.83	10.25	8.308	6.794
101.3 kPa, x2 = 0.641	22.98	17.41	13.47	10.6	8.484	6.887	5.67
101.3 kPa, x2 = 0.7356	17.61	–	10.58	8.433	6.828	5.626	4.688
101.3 kPa, x2 = 0.8064	10.8	8.438	6.716	5.451	4.498	3.765	3.181
101.3 kPa, x2 = 0.8623	6.917	5.549	4.52	3.745	3.143	2.663	2.282
101.3 kPa, x2 = 0.9067	4.02	–	2.789	2.363	2.02	1.75	1.536
101.3 kPa, x2 = 0.9434	2.462	2.089	1.794	1.557	1.364	1.206	1.076
101.3 kPa, x2 = 0.974	1.532	1.334	1.172	1.041	0.929	0.838	0.759
101.33 kPa, x1 = 0.01	–	1.089	0.97	–	0.785	–	–
101.33 kPa, x1 = 0.0217	–	1.366	1.198	–	0.949	–	–
101.33 kPa, x1 = 0.0333	–	1.692	1.469	–	1.133	–	–
101.33 kPa, x1 = 0.0467	–	2.146	1.836	–	1.384	–	–
101.33 kPa, x1 = 0.0622	–	2.759	2.315	–	–	–	–
101.33 kPa, x1 = 0.0772	–	3.465	2.815	–	2.049	–	–
101.33 kPa, x1 = 0.1167	–	5.735	4.525	–	3.075	–	–
101.33 kPa, x1 = 0.1656	–	9.455	7.046	–	4.573	–	–
101.33 kPa, x1 = 0.2308	–	14.59	10.71	–	6.551	–	–
101.33 kPa, x1 = 0.3169	–	19.66	14.66	–	8.805	–	–
101.33 kPa, x1 = 0.3893	–	21.8	16.85	–	10.24	–	–
101.33 kPa, x1 = 0.449	–	22.25	17.79	–	10.9	–	–
101.33 kPa, x1 = 0.5356	–	22.31	17.99	–	11.21	–	–
101.33 kPa, x1 = 0.6845	–	21.05	16.24	–	10.16	–	–
101.33 kPa, x1 = 0.8213	–	17.45	13.21	–	8.401	–	–
101.33 kPa, x1 = 0.9202	–	13.96	11	–	7.227	–	–
101.33 kPa, x1 = 0.956	–	12.96	10.26	–	6.823	–	–

NCCCC[C@H](N)C(=O)[O-].[K+] + O
viscosity [mPa·s]
Settings	293.15 K	298.15 K	303.15 K	308.15 K	313.15 K	318.15 K	323.15 K
100 kPa, x1 = 0.01	–	1.138	–	–	–	–	–
100 kPa, x1 = 0.02	–	1.642	–	–	–	–	–
101.3 kPa, x1 = 0.00479	1.183	1.051	0.9411	0.847	0.7675	0.7007	0.6435
101.3 kPa, x1 = 0.00923	1.393	1.226	1.092	0.9834	0.8868	0.8069	0.7376
101.3 kPa, x1 = 0.015	1.599	1.408	1.251	1.12	1.01	0.916	0.8358
101.3 kPa, x1 = 0.01985	1.92	1.683	1.49	1.328	1.194	1.077	0.9784
101.3 kPa, x1 = 0.03254	2.783	2.408	2.108	1.861	1.655	1.483	1.337
101.3 kPa, x1 = 0.0375	2.961	2.59	2.233	1.989	1.744	1.577	1.404
101.3 kPa, x1 = 0.0395	–	–	1.868	–	1.448	–	1.128
101.3 kPa, x1 = 0.04425	4.174	–	3.071	–	2.351	2.094	1.872
101.3 kPa, x1 = 0.0501	4.177	3.576	3.074	2.687	2.353	2.092	1.861
101.3 kPa, x1 = 0.0595	–	–	3.237	–	2.45	–	1.863
101.3 kPa, x1 = 0.06157	6.645	5.544	4.71	4.049	3.517	3.081	2.722
101.3 kPa, x1 = 0.0617	5.683	4.806	4.086	3.537	3.072	2.71	2.394
101.3 kPa, x1 = 0.0705	7.066	5.922	4.999	4.299	3.709	3.251	2.858
101.3 kPa, x1 = 0.0741	7.638	6.379	5.359	4.594	3.949	3.453	3.025
101.3 kPa, x1 = 0.0855	–	–	4.606	–	3.452	–	2.598

CC(C)CCO + c1ccccc1
viscosity [mPa·s], 101 kPa
Settings	293.15 K	298.15 K	303.15 K	308.15 K	313.15 K	318.15 K	323.15 K
x1 = 0.05	0.673	0.627	0.586	0.548	0.515	0.484	0.456
x1 = 0.1	0.705	0.656	0.612	0.573	0.537	0.505	0.475
x1 = 0.15	0.739	0.688	0.641	0.6	0.562	0.527	0.496
x1 = 0.2	0.777	0.723	0.673	0.629	0.589	0.552	0.519
x1 = 0.25	0.819	0.761	0.708	0.661	0.618	0.58	0.544
x1 = 0.3	0.866	0.804	0.748	0.697	0.651	0.61	0.572
x1 = 0.35	0.919	0.852	0.791	0.737	0.688	0.643	0.602
x1 = 0.4	0.979	0.906	0.84	0.782	0.728	0.68	0.636
x1 = 0.45	1.046	0.967	0.896	0.832	0.774	0.722	0.674
x1 = 0.5	1.124	1.037	0.96	0.89	0.826	0.769	0.717
x1 = 0.55	1.214	1.119	1.033	0.956	0.886	0.823	0.766
x1 = 0.6	1.321	1.214	1.118	1.032	0.955	0.885	0.822
x1 = 0.65	1.447	1.326	1.219	1.122	1.036	0.957	0.887
x1 = 0.7	1.6	1.462	1.339	1.23	1.131	1.042	0.962
x1 = 0.75	1.789	1.629	–	–	–	–	–

CCOCCO + CS(C)=O
viscosity [mPa·s], 101.33 kPa
Settings	298.15 K	303.15 K	308.15 K	313.15 K	318.15 K
x1 = 0.0436	2	1.8	1.66	1.52	1.38
x1 = 0.0879	2	1.8	1.66	1.53	1.38
x1 = 0.1327	2	1.81	1.67	1.53	1.38
x1 = 0.1781	2.01	1.81	1.67	1.53	1.38
x1 = 0.2242	2.01	1.82	1.68	1.54	1.38
x1 = 0.2709	2.02	1.82	1.68	1.54	1.38
x1 = 0.3183	2.02	1.82	1.68	1.54	1.38
x1 = 0.3663	2.03	1.83	1.69	1.54	1.38
x1 = 0.415	2.02	1.83	1.68	1.54	1.38
x1 = 0.4644	2.02	1.82	1.68	1.54	1.38
x1 = 0.5145	2.02	1.82	1.68	1.54	1.37
x1 = 0.5653	2.01	1.81	1.67	1.53	1.37
x1 = 0.6169	2.01	1.81	1.67	1.52	1.36
x1 = 0.6692	1.99	1.79	1.65	1.51	1.35
x1 = 0.7223	1.98	1.78	1.64	1.49	1.33
x1 = 0.7762	1.96	1.75	1.62	1.48	1.31
x1 = 0.8309	1.94	1.73	1.59	1.45	1.29
x1 = 0.8864	1.92	1.71	1.56	1.43	1.27
x1 = 0.9428	1.88	1.67	1.53	1.39	1.24
